Measured values: US9604944B2, “Arylpiperazine derivatives and methods of utilizing same” (REVIVA PHARMACEUTICALS, INC., priority 2009, dated 2017)
Structures can show the parent of a compound that is named as a salt.

Experiments:
[1] = molecular target: serotonin 5-HT2A receptor (Human Cortex) (Homo sapiens (Human), UniProt P28223); test: Serotonin, 5HT2A (human) binding assay; settings: radioligand [3H]-Ketanserin
Description: Serotonin, 5HT2A (human) binding assay
Materials and Methods: • Receptor Source: Human Cortex • Radioligand: [^3H]-Ketanserin (60-90 Ci/mmol) • Control Compound: Ketanserin • Incubation Conditions: The reactions were carried out in 50 mM TRIS-HCl (pH 7.6) at room temperature for 90 minutes. The reaction was terminated by rapid vacuum filtration onto glass fiber filters. Radioactivity trapped onto the filters was determined and compared to control values in order to ascertain any interactions of test compounds with the serotonin-5HT2A binding site (Literature Reference: Leysen, J. E. et al. Mol. Pharmacol. 1982, 21, 301-314; Martin, G. R. and Humphrey, P. P. A. Neuropharmacol. 1994, 33(3/4), 261-273.)
(§1) The radioligand binding assays for dopamine-D2S, serotonin-5HT1A and serotonin-5HT2A were carried out at six different concentrations and the test concentrations were 0.5 nM, 1 nM, 10 nm, 100 nM, 300 nM and 1000 nM.

[2] = molecular target: serotonin 5-HT1A receptor (human recombinant expressed in HEK-293 cells) (Homo sapiens (Human), UniProt P08908); test: Serotonin, 5HT1A (human recombinant) binding assay; settings: radioligand [3H]-8-OH-DPAT; human recombinant in HEK-293 cells
Chain of serotonin 5-HT1A receptor (human recombinant expressed in HEK-293 cells) (P08908 whole entry): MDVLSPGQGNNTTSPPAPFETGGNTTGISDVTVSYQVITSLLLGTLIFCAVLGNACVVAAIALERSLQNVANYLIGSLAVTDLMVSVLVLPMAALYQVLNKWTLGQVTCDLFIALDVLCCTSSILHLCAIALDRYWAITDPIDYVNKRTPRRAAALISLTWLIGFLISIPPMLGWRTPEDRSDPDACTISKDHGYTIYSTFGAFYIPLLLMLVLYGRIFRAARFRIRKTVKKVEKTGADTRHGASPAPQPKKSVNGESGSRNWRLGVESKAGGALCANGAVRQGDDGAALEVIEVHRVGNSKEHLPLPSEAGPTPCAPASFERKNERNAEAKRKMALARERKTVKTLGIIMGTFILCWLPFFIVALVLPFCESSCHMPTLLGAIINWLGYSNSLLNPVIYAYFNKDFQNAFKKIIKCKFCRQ
Description: Serotonin, 5HT1A (human recombinant) binding assay
Materials and Methods: • Receptor Source: Human recombinant expressed in HEK-293 cells • Radioligand: [^3H]-8-OH-DPAT (221 Ci/mmol) • Control Compound: 8-OH-DPAT • Incubation Conditions: The reactions were carried out in 50 mM TRIS-HCl (pH 7.4) containing 10 mM MgSO4, 0.5 mM EDTA and 0.1% Ascorbic acid at room temperature for 1 hour. The reaction was terminated by rapid vacuum filtration onto glass fiber filters. Radioactivity trapped onto the filters was determined and compared to control values in order to ascertain any interactions of test compounds with the cloned serotonin—5HT1A binding site (Literature Reference: Hoyer, D. et al. Eur. Journal Pharmacol. 1985, 118, 13-23; Schoeffter, P. and Hoyer, D. Naunyn-Schmiedeberg's Arch. Pharmac. 1989, 340, 135-138)
as §1

[3] = molecular target: dopamine D2S receptor (human recombinant expressed in CHO cells) (Homo sapiens (Human), UniProt P14416); test: Dopamine, D2S (human recombinant) binding assay; settings: radioligand [3H]Spiperone
Chain of dopamine D2S receptor (human recombinant expressed in CHO cells) (P14416 other isoform, or with tags, fused parts or gaps): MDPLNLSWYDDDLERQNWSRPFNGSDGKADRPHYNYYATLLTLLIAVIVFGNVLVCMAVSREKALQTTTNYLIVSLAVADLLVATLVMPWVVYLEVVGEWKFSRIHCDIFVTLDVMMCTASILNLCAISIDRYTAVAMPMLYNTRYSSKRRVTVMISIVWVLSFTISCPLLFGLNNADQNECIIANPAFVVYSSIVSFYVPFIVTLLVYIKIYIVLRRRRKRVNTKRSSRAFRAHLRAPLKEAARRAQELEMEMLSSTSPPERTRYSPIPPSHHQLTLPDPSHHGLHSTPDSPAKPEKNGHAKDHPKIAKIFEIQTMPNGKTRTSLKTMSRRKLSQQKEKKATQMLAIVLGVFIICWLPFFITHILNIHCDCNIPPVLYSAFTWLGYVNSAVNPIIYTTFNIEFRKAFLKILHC
Description: Dopamine, D2S (human recombinant) binding assay
Materials and Methods: • Receptor Source: Human recombinant expressed in CHO cells • Radioligand: [^3H]Spiperone (20-60 Ci/mmol) • Control Compound: Haloperidol • Incubation Conditions: The reactions were carried out in 50 mM TRIS-HCl (pH 7.4) containing 120 mM NaCl, 5 mM KCl, 5 mM MgCl2, 1 mM EDTA for 60 minutes at 25 C. The reaction was terminated by rapid vacuum filtration onto glass fiber filters. Radioactivity trapped onto the filters was determined and compared to control values in order to ascertain any interactions of test compounds with the cloned dopamine—D2 short binding site (Literature Reference: Jarvis, K. R. et al. Journal of Receptor Research 1993, 13(1-4), 573-590; Gundlach, A. L. et al. Life Sciences 1984, 35, 1981-1988.)
as §1

Chain of serotonin 5-HT2A receptor (Human Cortex) (P28223 whole entry): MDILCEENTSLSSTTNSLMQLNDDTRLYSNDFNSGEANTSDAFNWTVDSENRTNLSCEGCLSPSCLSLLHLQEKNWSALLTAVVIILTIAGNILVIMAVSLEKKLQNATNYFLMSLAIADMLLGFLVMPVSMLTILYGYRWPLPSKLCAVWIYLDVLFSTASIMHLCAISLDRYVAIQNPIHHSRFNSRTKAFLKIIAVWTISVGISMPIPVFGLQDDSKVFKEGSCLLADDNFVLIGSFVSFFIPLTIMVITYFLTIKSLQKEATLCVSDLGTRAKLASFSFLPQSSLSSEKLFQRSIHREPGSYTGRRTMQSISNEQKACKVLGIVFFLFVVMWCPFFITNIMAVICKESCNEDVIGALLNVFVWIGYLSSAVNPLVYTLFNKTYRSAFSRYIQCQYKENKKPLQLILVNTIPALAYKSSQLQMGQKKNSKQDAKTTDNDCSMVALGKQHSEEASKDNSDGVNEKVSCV

SMILES	IC50 [1] [nM]	Ki [1] [nM]	IC50 [2] [nM]	Ki [2] [nM]	IC50 [3] [nM]	Ki [3] [nM]
COc1ccccc1N1CCN(CCCCOc2ccc3c(c2)NC(=O)CO3)CC1 [Compound 15a, 6-(4-(4-(2-Methoxyphenyl)piperazin-1-yl)butoxy)-2H-benzo[b][1,4]oxazin-3(4H)-one hydrochloride]	262	118	0.97	0.65	0.98	0.3
O=C1COc2ccc(OCCCCN3CCN(c4cccc(Cl)c4Cl)CC3)cc2N1 [Compound 15b, 6-(4-(4-(2,3-Dichlorophenyl)piperazin-1-yl)butoxy)-2H-benzo[b][1,4]oxazin-3(4H)-one hydrochloride]	130	58.5	2.25	1.5	–	–
